{"source": "patent EP4793274A1", "about": "“SALT AND CRYSTAL FORM OF KIF18A INHIBITOR COMPOUND, PREPARATION METHOD THEREFOR AND USE THEREOF” (Hubei Bio-Pharmaceutical Industrial Technological Institute …, priority 2023, dated 2025)", "key": {"[1]": {"biological_target": "T1, recombinant protein KIF18A (kinesin domain: aa 1-467) (Homo sapiens, UniProt Q8NI77)", "T1 construct": "KIF18A (kinesin domain: aa 1-467); made in house; host or cells: Bac-to-Bac baculovirus expression system (Invitrogen)", "T1 sequence (Q8NI77 1-467)": "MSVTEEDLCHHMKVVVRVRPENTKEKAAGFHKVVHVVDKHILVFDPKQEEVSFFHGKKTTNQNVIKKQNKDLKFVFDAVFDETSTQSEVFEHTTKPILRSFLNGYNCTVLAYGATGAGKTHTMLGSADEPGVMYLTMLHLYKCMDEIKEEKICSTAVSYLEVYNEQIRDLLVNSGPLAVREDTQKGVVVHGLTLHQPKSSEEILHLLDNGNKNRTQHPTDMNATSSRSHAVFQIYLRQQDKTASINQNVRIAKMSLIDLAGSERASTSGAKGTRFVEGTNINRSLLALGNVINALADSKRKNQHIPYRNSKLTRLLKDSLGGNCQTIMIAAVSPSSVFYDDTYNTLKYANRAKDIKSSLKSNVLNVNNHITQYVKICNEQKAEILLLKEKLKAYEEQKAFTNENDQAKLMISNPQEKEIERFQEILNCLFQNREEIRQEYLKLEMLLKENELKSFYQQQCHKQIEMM", "assay": "Inhibition of KIF18A enzymatic activity (ADP-Glo kinase assay kit)", "type": "biochemical", "details": "KIF18A 80 nM, ATP 80 µM, 3 h at room temperature, luminescence", "excerpt": "The recombinant protein KIF18A (kinesin domain: aa 1-467) used in this assay was expressed by the Bac-to-Bac baculovirus expression system from Invitrogen, and the resulting protein was purified for use in this assay (Seki, M. et al. 2003 Nucleic Acids Res.). Quantitative detection of KIF18A enzymatic activity was completed using an ADP-Glo™ kinase assay kit (Promega Inc). Related procedures strictly followed the product instructions, which are briefly described as follows: The reaction system consisted of a test compound, the recombinant protein KIF18A (aa 1-467), ATP (Promega Inc), and an assay buffer. The test compound was prepared into a 0.5 mM stock solution using DMSO (Sigma Inc) and then serially diluted in DMSO. The assay buffer consisted of an aqueous solution of 15 mM Tris, 10 mM MgCl2 (Sigma Inc), 0.01% Pluronic F-68 (Life Technologies Inc), 1 µM paclitaxel (Cytoskeleton Inc), 30 µg/mL porcine tubulin (Cytoskeleton Inc), and 2% DMSO. […] After all reactions were completed, the luminescence values of the wells were read on a microplate reader (Molecular Device_SpectraMax Id5), and the inhibition ratios were calculated. […] Then, based on the inhibition rates at different compound concentrations, the IC50 value of the test compound was calculated using the GraphPad Prism 8 software."}, "NIH:OVCAR-3 cells": {"test_system": "NIH:OVCAR-3 cells", "assay": "Inhibition of OVCAR3 tumor cell proliferation (CellTiter-Glo)", "type": "cell-based", "details": "Homo sapiens, OVCAR-3, 72 h, 3 days drug treatment", "experimental": "NIH:OVCAR-3 cells (ATCC, Cat No. HTB-161, purchased from Co-Bier) were seeded into a T75 culture flask and cultured in an RPMI 1640 medium containing 20% FBS for 3 days in preparation for subsequent culturing and seeding into a 96-well plate for the cell proliferation assay. The OVCAR3 cells were seeded at a density of 3000 cells/100 µL/well into the 96-well cell plate, and then the plate was incubated in an incubator (37 °C, 5% CO2) for 18 h. On the second day, drug treatment was started. Serially diluted test compound solutions (each drug starting at a concentration of 10 µM, diluted in DMSO, with a dilution ratio of 1:3, and nine gradient points for each drug) or DMSO (negative control) was added to the medium in the plate at 100 µL/well, and a blank group was set up with only medium, but no seeded cell strains. After the drug addition, the plate was incubated in the incubator for another 3 days (37 °C, 5% CO2). On the fourth day, plate detection was performed. To each well, 100 µL of CellTiter-Glo reagent (Promega G9243) was added. The plate was shaken for 5 min and then left to stand at room temperature for 5 min. The chemical luminescence signal value of each well was determined using a microplate reader (PerkinElmer EnVision®2104). […] Then, the IC50 value of the test compound was calculated using the GraphPad Prism 8 software."}, "pKa of the compound": {"assay": "pKa of the compound", "type": "physicochemical", "details": "basic group"}}}
{"smiles": "Cc1cc(-c2cnn(-c3ccc(NS(=O)(=O)CCO)cc3N3CCC4(CC3)CC4)c2)nc(N2CCC(F)(F)CC2)n1", "note": "[compound of formula I, N-(4-(4-(2-(4,4-difluoropiperidin-1-yl)-6-methylpyrimidin-4-yl)-1H-pyrazol-1-yl)-3-(6-azaspiro[2.5]octan-6-yl)phenyl)-2-hydroxyethane-1-sulfonamide]", "values": [{"measurement": "IC50", "setting": "[1]", "result": 11, "unit": "nM"}, {"measurement": "IC50", "setting": "NIH:OVCAR-3 cells", "result": 96, "unit": "nM"}, {"measurement": "pKa", "setting": "pKa of the compound", "result": 4.5}]}
